Reference: patent US5457108A, “5-oxo-dibenzo[a,d]cyclohepta-1,4-dienes” (Bayer Aktiengesellschaft, priority 1992, dated 1995)

What was measured:
[1] = test system: HIV; assay: HIV infection in cell culture (syncytium formation in HIV-infected human PBLs); format: cell-based; details: Human immunodeficiency virus 1, Lymphocyte, 72 h; HIV-infected normal human blood lymphocytes (PBLs), 37° C., evaluated day 3 to 6 after infection; read-out: IC50 (50% of the virus-induced syncytia suppressed)
Method: HIV infection in cell culture
The HIV test was carried out, with minor modifications, according to the method of Pauwels et al. [cf. Journal of Virological Methods 20, (1988), 309-321].
Normal human blood lymphocytes (PBLs) were enriched through Ficoll-Hypaque and stimulated in RPMI 1640, 20% fetal calf serum containing phytohaemagglutinin (90 μg/ml) and interleukin-2 (40 U/ml). For infection with the infectious HIV, the PBLs were pelleted and the cell pellet was subsequently suspended in 1 ml of HIV virus adsorption solution and incubated at 37° C. for 1 hour.
The virus adsorption solution was centrifuged and the infected cell pellet was taken up in growth medium in such a way that the suspension was adjusted to 1×10^5 cells per ml. The cells infected in this manner were pipetted, at 1×10^4 cells/well, into the wells of 96-well microtitre plates.
The first vertical row of the microtitre plate contained only growth medium and cells which were not infected but which otherwise had been treated exactly as described above (cell control). The second vertical row of the microtitre plate contained only HIV-infected cells (virus control) in growth medium. […]
The test mixtures were incubated at 37° C. until the syncytium formation which is typical for HIV appeared in the untreated virus control (between day 3 and 6 after infection) and it was then evaluated microscopically. […]

[2] = target: T1, HIV protease (Human immunodeficiency virus type 1 group M subtype B, UniProt P04585); assay: HIV protease enzyme test (cleavage of synthetic Gag peptide, RP-HPLC); format: biochemical; details: purified HIV protease, synthetic peptide substrate, read-out: IC50 (50% inhibition of the protease activity)
T1 construct: purified HIV protease was incubated with synthetic peptide
Method: This is verified by means of an HIV-specific protease enzyme test.
The results of the examples listed below were determined according to the HIV test system described in the following references [cf. Hansen, J., Billich, S., Schulze, T., Sukrow, S. and Molling, K (1988), EMBO Journal, Vol. 7, No. 6, pp. 1785-1791]: purified HIV protease was incubated with synthetic peptide which imitates a cleavage site in the Gag precursor protein and represents an in-vivo cleavage site for the HIV protease. The cleavage products of the synthetic peptide which resulted were analysed by means of reverse phase high performance liquid chromatography (RP-HPLC). The IC50 values which are given refer to the substance concentrations which, under the test conditions set out above, effect a 50% inhibition of the protease activity.

| SMILES | IC50 [1] [µM] | IC50 [2] [µM] |
| --- | --- | --- |
| O=C(NCc1ccc2c(c1)[C@@H](O)[C@@H](O)c1cc(CNC(=O)OCc3ccccc3)ccc1C2=O)OCc1ccccc1 [Example 5, (cis)-2,8-Bis-phenylmethoxycarbonylaminomethyl-10,11-dihydroxy-5-oxo-dibenzo[a,d]cyclohepta-1,4-diene] | 10 |  |
| O=C(NCc1ccc2c(c1)[C@@H](O)[C@H](O)c1cc(CNC(=O)OCc3ccccc3)ccc1C2=O)OCc1ccccc1 (relative stereo) [Example 4, (trans)-2,8-Bis-phenylmethoxycarbonylaminomethyl-10,11-dihydroxy-5-oxo-dibenzo[a,d]cyclohepta-1,4-diene] | 10 | 0.005 |
| CC(C)(C)S(=O)(=O)CC(Cc1cccc2ccccc12)C(=O)NCc1ccc2c(c1)C(O)C(O)c1cc(CNC(=O)C(Cc3cccc4ccccc34)CS(=O)(=O)C(C)(C)C)ccc1C2=O (stereo not drawn) [Example 6, (trans)-10,11-Dihydroxy-2,8-bis-[5,5-dimethyl-4,4-dioxo-2-(1-naphthylmethyl)-4-thiahexanoylaminomethyl-5-oxodibenzo[a,d]cyclohepta-1,4-diene] |  | 2 |
